Test results as given in patent US10975069B2, “Sigma-2 receptor ligand drug conjugates as antitumor compounds, methods of synthesis and uses thereof” (priority 2014, dated 2021).
Like-named read-outs stand apart in the source and are kept apart here.

What was measured:
caspase 3/7 = experiment: CASPASE-GLO caspase 3/7 assay in AsPC-1 cells; type: cell-based, human; conditions: for caspase activity compared to 4 μM SW V-49s: 50 μM, 24 hr., FIG. 5A
From the text: In these experiments, the inventors investigated whether compounds of the present teachings were lethal towards pancreatic cancer cells by triggering an apoptosis cell death pathway, a ferroptosis cell death pathway, or a combination thereof. The inventors thus performed assays for caspase 3/7 as an indicator of apoptotic cell death, and assays for the generation of reactive oxygen species (ROS) as an indicator of ferropoptotic cell death. […] In FIG. 5B, results are shown for Caspase-Glo® (Promega) assays of Aspc-1 cells treated with 8 μM SW V-49s, 8 μM Erastin, 8 μM SV119, or 8 μM of an equimolar mixture of Erastin and SV 119, for 7 hrs.
In these experiments, caspase-3/7.8 and 9 activities were measured In AsPC-1 cells using the corresponding CASPASE-GLO® Assay according to the manufacturer's instructions (Promega, Madison. Wis.). This assay is based on a caspase-specific substrate, which is cleaved to release aminoluciferin, a substrate of luciferase that results in caspase-specific luminescence signals. Cells were seeded at a density of 2×10^4 in white 96-well, clear bottom plates for 24 hours before treatment with 4 μM of compounds. The contents were then mixed using a plate shaker for 30 seconds, thereafter incubated at room temperature for 90 minutes. Luminescence signal was measured using a multi-mode microplate reader (BioTek). Assay was performed in triplicates, and the caspase activity of DMSO was considered as a base line.
The present inventors have shown that SV119 induces caspase-3 dependent apoptosis (Kashiwagi, H., el al. Mol Cancer 2007; 6:48). In these experiments, AsPC-1 cells were treated with 4 μM of SW V-49s. SV119, Erastin, and equimolar mixture of SV119 and Erastin for 24 hours. Using CASPASE-GLO® Assays, Caspase-3 level was measured to assess the activity of SW 119 domain of the SW V-49s compound and Caspase-8 and 9 levels were measured to identify which apoptotic pathway was involved.

[1] = target: T1, cystine/glutamate antiporter (system Xc′) (Homo sapiens, UniProt Q9UPY5); experiment: Cystine uptake assay in AsPC-1 cells; type: cell-based; conditions: FIG. 11A; for reduction in cystine uptake: same concentration of each compound (200 μM), DMSO control
T1 construct: endogenous in cells; host or cells: AsPC-1
T1 sequence (Q9UPY5 1-501): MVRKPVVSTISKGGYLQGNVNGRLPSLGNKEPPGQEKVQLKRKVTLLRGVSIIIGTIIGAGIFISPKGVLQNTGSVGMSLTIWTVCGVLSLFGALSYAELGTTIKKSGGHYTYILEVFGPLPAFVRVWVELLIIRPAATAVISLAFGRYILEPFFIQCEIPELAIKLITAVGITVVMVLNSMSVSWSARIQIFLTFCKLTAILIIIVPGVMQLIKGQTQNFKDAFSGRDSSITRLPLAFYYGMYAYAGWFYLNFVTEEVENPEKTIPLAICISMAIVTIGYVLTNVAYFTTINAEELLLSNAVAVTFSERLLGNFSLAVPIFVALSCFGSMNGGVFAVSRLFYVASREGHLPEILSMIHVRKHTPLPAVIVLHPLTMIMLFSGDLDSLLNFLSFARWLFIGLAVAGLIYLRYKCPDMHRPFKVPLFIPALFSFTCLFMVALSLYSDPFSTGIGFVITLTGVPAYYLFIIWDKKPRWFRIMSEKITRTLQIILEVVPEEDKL
T1 sequence (P08195 1-529 partner): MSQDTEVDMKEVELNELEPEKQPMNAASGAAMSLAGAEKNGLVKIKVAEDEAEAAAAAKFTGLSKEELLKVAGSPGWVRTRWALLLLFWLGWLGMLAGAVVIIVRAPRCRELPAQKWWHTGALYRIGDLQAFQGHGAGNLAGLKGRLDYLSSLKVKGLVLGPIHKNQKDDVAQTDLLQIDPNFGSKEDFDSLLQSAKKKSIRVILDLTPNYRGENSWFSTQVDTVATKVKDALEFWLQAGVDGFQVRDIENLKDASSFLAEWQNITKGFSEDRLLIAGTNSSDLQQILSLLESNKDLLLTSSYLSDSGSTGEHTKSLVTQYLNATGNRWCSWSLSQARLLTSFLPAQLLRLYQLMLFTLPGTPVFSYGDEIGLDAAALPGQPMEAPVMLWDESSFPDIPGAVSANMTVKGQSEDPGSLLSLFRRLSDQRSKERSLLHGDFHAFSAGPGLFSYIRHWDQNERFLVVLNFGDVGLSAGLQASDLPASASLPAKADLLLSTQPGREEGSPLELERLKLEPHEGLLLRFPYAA
Description: In these experiments, cystine uptake assay was performed as previously described (Dixon, S. J. et al. Cell 2012; 149: 1060-1072). Briefly, […] AsPC-1 cells/well were seeded overnight in 6 well plate. The next day, cells were washed twice in pre-warmed Na^+-free uptake buffer (137 mM choline chloride, 3 mM KCl, 1 mM CaCl2, 1 mM MgCl2, 5 mM D-glucose, 0.7 mM K2HPO4, and 10 mM HEPES [pH 7.4]). Subsequently, cells were incubated for 10 minutes at 37° C. in 1 ml of the uptake buffer to deplete cellular amino acids. The buffer was then replaced with 600 μl uptake buffer containing 200 μM of SW V-49s and 0.12 μCi (80-110 mCi/mmol) of L-[3,3′-^14C]-cystine (American Radiolabeled Chemicals. St Louis. Mo.) and incubated for 3 minutes at 37° C. After that, cells were washed three times with ice-cold uptake buffer and lysed in 500 μl of 0.1 M NaOH. To this lysate, 1 ml of scintillation fluid was added, and radioactive counts per minute were obtained by using a scintillation counter.
To evaluate this mechanism. AsPC-1 cells were plated in 6 well plate for 24 hours. Cells were then treated with the same concentration of SV119, Erastin, combination of SV119 and Erastin. SW V-49s, and DMSO as a control. After that, a cystine uptake assay was performed. […] Erastin, and combination of SV 119 and Erastin, respectively (p=0.004, FIG. 11A).

SYO-1 = experiment: Viability assay, 24 hours treatment, synovial sarcoma cells; type: cell-based
Description: In these experiments, viability assays after 24 hours treatment of human and murine pancreatic cancer cell lines and synovial sarcoma cell lines with SW V-49s or its parent compounds SV119 and Erastin, both singly and in combination, were performed. […] In comparison.
Synovial sarcoma cell lines (FIG. 4F, SYO-1, ME1 deficient) are so sensitive to SW V-49s that it was difficult to measure the minimal drug concentration required to kill 50% of the cancer cells, but the measured IC50 was approx. 1.0 μM.
AsPC-1 and SYO-1 cells were plated in 96 well plate overnight then treated with similar concentrations of Erastin for 24 hours. Viability assay was performed after 24 hours. […] (p<0.0001), (FIG. 10).

[2] = 24 hours treatment, SYO-1, ME1 deficient, FIG. 4F, read-out: IC50

SMILES | caspase activity compared to 4 μM SW V-49s (caspase 3/7; AsPC-1 cells) | reduction in cystine uptake [1] [%] | death of cells (SYO-1; 40 μM, 24 hours, SYO-1 cells, FIG. 10) [%] | IC50 (SYO-1; 24 h) [µM] | IC50 (SYO-1; [2]) [µM] | caspase-3 fold above baseline (caspase 3/7; 4 μM, 24 hours, AsPC-1, DMSO baseline, FIG. 12A) [fold] | increase in caspase 3/7 activity compared to all controls (caspase 3/7; 8 μM, 7 hrs, AsPC-1 cells, FIG. 5B) | fold less cysteine uptake [1] [fold]
CCOc1ccccc1-n1c(C(C)N2CCN(C(=O)COc3ccc(Cl)cc3)CC2)nc2ccccc2c1=O (stereo not drawn) [Erastin] | far less caspase activity | 41 | 84 | > 16 | – | – | – | –
COc1ccc(C)cc1NC(=O)OC1C[C@H]2CCC[C@@H](C1)N2CCCCCCN (stereo partly drawn) [SV119, reference compound] | far less caspase activity | 25 | – | – | 6.2 | – | – | –
CCOc1ccccc1-n1c(CN2CCN(C(=O)COc3ccc(CNCCCCCCN4C5CCCC4CC(OC(=O)Nc4cc(C)ccc4OC)C5)cc3)CC2)nc2ccccc2c1=O.O=C(O)C(=O)O (stereo not drawn) [SW V-49s] | – | 85 | – | – | ~1 | 3.4 | approximately 3 fold | 3.7
